IC50 data for 42 molecules are collected here from PubChem BioAssay AID488890 (Southern Research Specialized Biocontainment Screening …, 2010).

The term pIC50 denotes the IC50 on a negative log10 scale, so that one unit is a factor of ten. What is called IC50 is the concentration needed to halve the response being measured.

pIC50: −log10 of the molar value. Inconclusive results are not listed. The source made the active and inactive calls. How the calls were made is not given here.

For the experiment, the system named is Mycobacterium tuberculosis non-replicating, growth inhibition. Description: growth inhibition of non-replicating M. tuberculosis (AID 488890).
For the molecule `CC(=O)c1ccc(OC(=O)c2ccc(-n3nc(C)cc3C)cc2)cc1`, the pIC50 was 5.61.
Consider `O=c1ccn(-c2ccccc2)[nH]1`, for which the pIC50 is 5.12.
Same read-out and setting: the value for `CC(=O)Oc1c(-c2ccc(Br)o2)oc2ccccc2c1=O` was 5.54.
With `CC(=O)N(c1nnc(-c2ccc(C)cc2)s1)C1CCCC1`, the IC50 was 26.2 µM (inactive).
With `Cc1nc2c(=O)n(C)c(=O)nc-2n(C)n1`, the pIC50 was 5.08.
Regarding `CC(=O)c1c(C)n(C)c2ccc(OC(=O)c3ccco3)cc12`, the IC50 is 10.3 µM (inactive).
On the same count and under the same terms, the value for `Cc1ccsc1C(=O)OCC(=O)Nc1nnc(-c2ccccc2)o1` was 18.2 µM (inactive).
With `Cc1ccnc(NS(=O)(=O)c2ccc(NC(=O)c3ccc([N+](=O)[O-])s3)cc2)n1`, the pIC50 was 5.08.
For `Cc1ccc(NC(CC(=O)c2ccccc2)C(=O)O)cc1Cl` (configuration not stated), the pIC50 is 5.08.
For `O=C(COc1cccc2ccccc12)Nc1ccc(Cl)cc1C(=O)O`, the negative logarithm of the IC50 (pIC50) is 5.20.
Turning to `COC(=O)c1cc(/C=C/c2ccccc2)on1`, the negative-log IC50 (pIC50) was 5.66.
The same measure, in the same setting: the value for `O=C(Nc1nnc(C2COc3ccccc3O2)o1)c1ccc(F)cc1` (configuration not stated) was 5.15.
For `O=C(COc1ccccc1)Nc1nnc(-c2ccc(Cl)cc2)o1`, the IC50 was 21.9 µM (inactive).
For the molecule `CCN1CCN(Cc2cc(C(C)(C)C)c(O)c(C(C)(C)C)c2)CC1`, the pIC50 is 5.46.
With `Cc1ccc(-c2nnc(-c3ccccc3)o2)cc1`, the negative logarithm of the IC50 (pIC50) is 5.77.
On to `CCCN1C(=O)S/C(=C\c2ccc(N3CCOCC3)o2)C1=O`, for which the IC50 is 25.2 µM (inactive).
For `O=C(NCC1CCCCC1)c1ccc([N+](=O)[O-])cc1`, the pIC50 was 6.21.
As to `CCCOC(=O)c1ccc(OC(=O)c2ccco2)cc1`, the IC50 is 21.9 µM (inactive).
Turning to `O=C(NCc1ccc2c(c1)OCO2)c1ccc(Cl)s1`, the negative logarithm of the IC50 (pIC50) was 5.76.
On to `COC(=O)COc1ccc(S(=O)(=O)N2CCN(c3ccccc3F)CC2)cc1`, for which the IC50 was 27.9 µM (inactive).
As to `Cc1cccc(/C=C/c2onc(C)c2[N+](=O)[O-])n1`, the IC50 was 15 µM (inactive).
On the same count and under the same terms, under `c1ccc2cc(OCCCn3ccnc3)ccc2c1` stands 16.5 µM (inactive).
On to `C=CCN1C(=O)C2(NNc3ccccc3O2)c2ccccc21` (configuration not stated), for which the pIC50 was 5.65.
For the molecule `Cc1cc(N2CCN(c3ccccc3)CC2)nc(-n2nc(C)cc2C)n1`, the pIC50 is 5.20.
`Fc1ccc(N2CCN(Cc3nnc(-c4ccccc4)o3)CC2)cc1`: the IC50 was 18.9 µM (inactive).
Consider `CC1=NN(C(=O)c2cc(C)nn2C)C(O)(C(F)(F)F)C1` (configuration not stated), for which the pIC50 was 5.12.
The same measure, in the same setting: under `O=C(N/N=C/c1ccc[nH]1)c1ccncc1` stands 5.65; under `COc1ccccc1/C=N\Nc1cc(C)nc(-n2nc(C)cc2C)n1`, 5.75.
`Cc1ccnc(-n2sc3ccccc3c2=O)n1`: the IC50 is 25.6 µM (inactive).
On the same count and under the same terms, the value for `CCOC(=O)CN1NC2(CCCC(C)C2)NC1=S` (configuration not stated) was 11.9 µM (inactive); that for `CCc1ccc(/C=N/NC(=O)c2ccccn2)cc1` was 24.8 µM (inactive); that for `O=C(CN1CCC(Cc2ccccc2)CC1)NC(=O)NC1CCCCC1` was 19 µM (inactive).
As for `COc1ccc2cc(C(=O)C3CCCN(Cc4ccccn4)C3)ccc2c1` (configuration not stated), the pIC50 is 5.18.
`O=C(/C=C/Nc1ccccc1O)c1ccco1`: the pIC50 is 5.69.
The same measure, in the same setting: under `O=C(CCN1CCOCC1)c1ccc(Cl)cc1` stands 5.15.
`N#C/C(N=Nc1ccccc1O)=N\Nc1ccccc1O`: the negative-log IC50 (pIC50) is 5.57.
Take `COc1ccc(CNC(=O)c2cc3cccc(O)c3oc2=N)cc1`: the IC50 was 14.3 µM (inactive).
On to `O=C(Nc1nnc(-c2ccc(Cl)cc2)o1)c1ccccc1Br`, for which the pIC50 was 6.24.
Regarding `COC(=O)CCSCc1cn2cc(Cl)ccc2n1`, the IC50 was 32 µM (inactive).
Turning to `COC(=O)COc1ccc2cc(-c3ccc(OC)cc3)c(=O)oc2c1`, the pIC50 was 5.85.
As to `O=C(NCc1cccs1)c1ccc(Br)o1`, the pIC50 was 5.47.
On the same count and under the same terms, under `O=C(N/N=C/c1cc(Br)c(Br)s1)c1ccncc1` stands 5.50.
